In BindingDB's records for doi:10.1021/jm9801197 (Kennesaw State University, 1999):

What was measured:
[1] = Compound was evaluated for its binding affinity against Cannabinoid receptor 2 in Guinea pig ileum (GPI) using [3H]CP-55940 ligand
[2] = Compound was evaluated for its binding affinity against Cannabinoid receptor 1 in Guinea pig ileum (GPI) using [3H]CP-55940 ligand
[3] = Compound was evaluated for its binding affinity against Cannabinoid receptor 1 in Guinea pig ileum (GPI) using [3H]SR-141,716A ligand at site 2
[4] = Compound was evaluated for its binding affinity against Cannabinoid receptor 1 in Guinea pig ileum (GPI) using [3H]SR-141,716A ligand at site 1
[5] = Compound was evaluated for its binding affinity against Cannabinoid receptor 1 in Guinea pig ileum (GPI) using [3H]SR-141,716A ligand

Row | Compound | Ki [1] | Ki [2] | Ki [3] | Ki [4] | Ki [5]
1 | CC1=C(CCN2CCOCC2)c2ccccc2/C1=C/c1cccc2ccccc12 [4-(2-{2-Methyl-3-[1-naphthalen-1-yl-meth-(Z)-ylidene]-3H-inden-1-yl}-ethyl)-morpholine] | 2.1 nM | – | – | – | –
2 | C1=C(CCN2CCOCC2)c2ccccc2/C1=C/c1cccc2ccccc12 [4-(2-{3-[1-Naphthalen-1-yl-meth-(E)-ylidene]-3H-inden-1-yl}-ethyl)-morpholine] | 2.7 nM | 2.7 nM | 611 nM | 11 nM | –
3 | C1=C(CCN2CCOCC2)c2ccccc2/C1=C\c1cccc2ccccc12 [4-(2-{3-[1-Naphthalen-1-yl-meth-(Z)-ylidene]-3H-inden-1-yl}-ethyl)-morpholine] | 132 nM | 148 nM | – | – | 928 nM
